Test results published in patent US10829516B2 (London Health Sciences Centre Research Inc., priority 2015, dated 2020).
Non-standard residues stand in square brackets, D forms with d. Residues, ends and D or L forms follow the SMILES beside them. *: point of attachment. 1Nal = N[C@@H](Cc1cccc2ccccc12)C(=O)O; d2Nal = N[C@H](Cc1ccc2ccccc2c1)C(=O)O; Benzoyl(4-F) = O=C(c1ccc(F)cc1)*; d2Thi = N[C@H](Cc1cccs1)C(=O)O; Propanoyl(2-F) = CC(F)C(=O)*; Dap = NC[C@H](N)C(=O)O; Aib = CC(C)(N)C(=O)O; Inp = O=C(O)C1CCNCC1

target: T1, GHS-R1a (Homo sapiens, UniProt Q92847); assay: Receptor-ligand competitive binding assay, HEK293/GHS-R1a cells with [125I]ghrelin as radioligand; conditions: not given
T1 construct: expressed in transfected cells; host or cells: HEK293
Method: Receptor-Ligand Binding Assay
Competitive binding assays were run at the Lawson Health Research Institute at St. Joseph's Health Care in London. […] To begin with, a fresh solution of binding buffer (50 ml) was made up by adding HEPES (0.3 g, 25 mM), MgCl2 (0.051 g, 5 mM), CaCl2 (7.4×10^−3 g, 1 mM), EDTA (0.015 g, 2.5 mM) and BSA (0.2 g, 0.4%) to distilled H2O. The resultant solution was mixed over gentle heat. The pH was then adjusted to 7.4 and the solution filtered. Two miniature complete protease inhibitor tablets were then added and the final buffer solution kept on ice.
After the buffer had been made, assay tubes were labelled and kept on ice during the setup. To assay tubes 1-21, 25-27 and 28-30 was added binding buffer (200 μl, 230 μl and 300 μl respectively). No buffer was added to tubes 22-24. An aliquot of frozen cells was thawed to room temperature, centrifuged (3000×g, 10 mins, room temperature) and the subsequent cell pellet re-suspended in binding buffer (2 ml) and placed on ice. Cells (50 μl) were then added to assay tubes 1-21 and 25-27. Cold peptide was then prepared. This was carried out by adding stock peptide (20 μl) to binding buffer (180 μl) to make a peptide solution of 10^−4M concentration. Binding buffer (180 μl) was then added to assay tubes labelled 10^−5 to 10^−11. A series of dilutions was then made in order to acquire 10^−5 to 10^−11M concentrations. Cold peptide (30 μl) was then added to the corresponding assay tubes in triplicate.
All assay tubes were then vortexed, capped and immediately agitated (550 rpm, 20 mins, 37° C.). After 20 minutes, tubes 1-21 and 25-27 were spun in a large centrifuge (2800 rpm, 2 mins, 4° C.). The solution in all of the tubes was then transferred to Eppendorf tubes (0.5 ml), further binding buffer added (200 μl), the solutions mixed by pipetting and transferred to 0.5 ml tubes. The tubes were then spun again (13 000×g, 5 mins, 4° C.) and placed on ice. The supernatant was removed and the cell pellet rinsed with ice-cold Tris-HCl (200 μl, 50 mM, pH 7.4) and the tubes mixed by inversion. Tubes were spun a final time (13,000×g, 5 mins, 4° C.), cooled on ice and supernatant removed. The tubes were then placed in 12×75 mm assay tubes and counted using a gamma counter (see protocol 3). The binding assay may be summarized as follows:
Competitive binding assays were run on the compounds of Table 2 as described in Example 1. The formulas of the compounds of Table 2 are illustrated in FIGS. 49 and 50.

T1 sequence (Q92847 whole entry): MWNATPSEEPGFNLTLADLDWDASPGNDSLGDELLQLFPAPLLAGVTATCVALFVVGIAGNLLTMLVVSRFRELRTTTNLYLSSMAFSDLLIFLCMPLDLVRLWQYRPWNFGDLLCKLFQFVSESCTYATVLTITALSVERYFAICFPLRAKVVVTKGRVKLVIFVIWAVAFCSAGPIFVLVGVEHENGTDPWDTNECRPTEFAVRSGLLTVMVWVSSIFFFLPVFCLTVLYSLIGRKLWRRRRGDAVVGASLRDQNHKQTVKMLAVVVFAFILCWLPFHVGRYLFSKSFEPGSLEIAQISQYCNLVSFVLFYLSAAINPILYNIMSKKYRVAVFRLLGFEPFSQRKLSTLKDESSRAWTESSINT

SMILES | IC50
NC(=O)[C@H](CCCCNC(=O)c1ccc(F)cc1)NC(=O)[C@@H](Cc1cccs1)NC(=O)[C@@H](Cc1ccc2ccccc2c1)NC(=O)[C@H](Cc1c[nH]cn1)NC(=O)C1CCNCC1 [Inp-Thi-4-FB-Ipamorelin, H-Inp-His-D-2-Nal-D-2-Thi-Lys(4-FB)-NH2] (H-[Inp]H[d2Nal][d2Thi]K(Benzoyl(4-F))-NH2) | 1.17 µM
CC(C)(N)C(=O)N[C@@H](Cc1c[nH]cn1)C(=O)N[C@H](Cc1ccc2ccccc2c1)C(=O)N[C@H](Cc1cccs1)C(=O)N[C@@H](CCCCNC(=O)c1ccc(F)cc1)C(N)=O [Thi-4-FB-Ipamorelin, H-Aib-His-D-2-Nal-D-2-Thi-Lys(4-FB)-NH2] (H-[Aib]H[d2Nal][d2Thi]K(Benzoyl(4-F))-NH2) | 0.161 µM
NC(=O)[C@H](CCCCNC(=O)c1ccc(F)cc1)NC(=O)[C@H](Cc1ccccc1)NC(=O)[C@@H](Cc1ccc2ccccc2c1)NC(=O)[C@@H](Cc1ccc2ccccc2c1)NC(=O)C1CCNCC1 [Compound 4-FB-G-7039, H-Inp-D-2-Nal-D-2-Nal-Phe-Lys(4-FB)-NH2] (H-[Inp][d2Nal][d2Nal]FK(Benzoyl(4-F))-NH2) | 0.242 µM
C[C@H](NC(=O)[C@@H](Cc1ccc2ccccc2c1)NC(=O)[C@@H](C)N)C(=O)N[C@@H](Cc1c[nH]c2ccccc12)C(=O)N[C@H](Cc1ccccc1)C(=O)N[C@@H](CCCCN)C(N)=O [GHRP-2, H-D-Ala-D-2-Nal-Ala-Trp-D-Phe-Lys-NH2, reference compound] (H-[dA][d2Nal]AW[dF]K-NH2) | 0.449 µM
CC(F)C(=O)NCCCC[C@H](NC(=O)[C@H](CO)NC(=O)[C@@H](Cc1ccc2ccccc2c1)NC(=O)[C@@H](Cc1ccc2ccccc2c1)NC(=O)C1CCNCC1)C(N)=O (stereo partly drawn) [TL-MF-2-2FP, H-Inp-(D-2-Nal)2-Ser-Lys(2-FP)-NH2] (H-[Inp][d2Nal][d2Nal]SK(Propanoyl(2-F))-NH2) | 0.0603 µM
CC(F)C(=O)NCCCC[C@H](NC(=O)[C@H](Cc1ccccc1)NC(=O)[C@H](CO)NC(=O)[C@@H](Cc1ccc2ccccc2c1)NC(=O)[C@@H](Cc1ccc2ccccc2c1)NC(=O)C1CCNCC1)C(N)=O (stereo partly drawn) [TL-MF-5-2FP, H-Inp-(D-2-Nal)2-Ser-Phe-Lys(2-FP)-NH2] (H-[Inp][d2Nal][d2Nal]SFK(Propanoyl(2-F))-NH2) | 0.0629 µM
NCCCC[C@H](NC(=O)[C@H](Cc1ccccc1)NC(=O)[C@@H](Cc1ccc2ccccc2c1)NC(=O)[C@@H](Cc1ccc2ccccc2c1)NC(=O)C1CCNCC1)C(N)=O [Compound G-7039, H-Inp-D-2-Nal-D-2-Nal-Phe-Lys-NH2, reference compound] (H-[Inp][d2Nal][d2Nal]FK-NH2) | 0.00521 µM
NC(=O)[C@H](CCCCNC(=O)c1ccc(F)cc1)NC(=O)[C@H](Cc1cccc2ccccc12)NC(=O)[C@@H](Cc1ccc2ccccc2c1)NC(=O)[C@@H](Cc1ccc2ccccc2c1)NC(=O)C1CCNCC1 [MMF-01-115-H, H-Inp-D-2-Nal-D-2-Nal-1-Nal-Lys(4-FB)-NH2] (H-[Inp][d2Nal][d2Nal][1Nal]K(Benzoyl(4-F))-NH2) | 0.0688 µM
NC(=O)[C@H](CCCCNC(=O)c1ccc(F)cc1)NC(=O)[C@@H](Cc1ccc2ccccc2c1)NC(=O)[C@@H](Cc1ccc2ccccc2c1)NC(=O)[C@H](Cc1c[nH]cn1)NC(=O)C1CCNCC1 [MMF-01-140-H, H-Inp-His-D-2-Nal-D-2-Nal-Lys(4-FB)-NH2] (H-[Inp]H[d2Nal][d2Nal]K(Benzoyl(4-F))-NH2) | 1.92 µM
CC(F)C(=O)NCCCC[C@H](NC(=O)[C@H](Cc1ccc(O)cc1)NC(=O)[C@@H](Cc1ccc2ccccc2c1)NC(=O)[C@@H](Cc1ccc2ccccc2c1)NC(=O)C1CCNCC1)C(N)=O (stereo partly drawn) [TL-MF-3-2FP, H-Inp-D-2-Nal-D-2-Nal-Tyr-Lys(2-FP)-NH2] (H-[Inp][d2Nal][d2Nal]YK(Propanoyl(2-F))-NH2) | 0.000283 µM
CC(C)(N)C(=O)N[C@@H](Cc1c[nH]cn1)C(=O)N[C@H](Cc1ccc2ccccc2c1)C(=O)N[C@H](Cc1ccccc1)C(=O)N[C@@H](CCCCN)C(N)=O [Ipamorelin, H-Aib-His-D-2-Nal-D-Phe-Lys-NH2, reference compound] (H-[Aib]H[d2Nal][dF]K-NH2) | 0.483 µM
NC(=O)[C@H](CCCCNC(=O)c1ccc(F)cc1)NC(=O)[C@@H](Cc1ccccc1)NC(=O)[C@@H](Cc1ccc2ccccc2c1)NC(=O)[C@H](Cc1c[nH]cn1)NC(=O)C1CCNCC1 [Inp-4-FB-Ipamorelin, H-Inp-His-D-2-Nal-D-Phe-Lys(4-FB)-NH2] (H-[Inp]H[d2Nal][dF]K(Benzoyl(4-F))-NH2) | 0.688 µM
CC(C)(N)C(=O)N[C@@H](Cc1c[nH]cn1)C(=O)N[C@H](Cc1ccc2ccccc2c1)C(=O)N[C@H](Cc1ccccc1)C(=O)N[C@@H](CCCCNC(=O)c1ccc(F)cc1)C(N)=O [4-FB-Ipamorelin, H-Aib-His-D-2-Nal-D-Phe-Lys(4-FB)-NH2] (H-[Aib]H[d2Nal][dF]K(Benzoyl(4-F))-NH2) | 0.17 µM
C[C@H](NC(=O)[C@@H](Cc1c[nH]c2ccccc12)NC(=O)[C@@H](N)Cc1c[nH]cn1)C(=O)N[C@@H](Cc1c[nH]c2ccccc12)C(=O)N[C@H](Cc1ccccc1)C(=O)N[C@@H](CCCCNC(=O)c1ccc(F)cc1)C(N)=O [Compound 4-FB-GHRP-6, H-His-D-Trp-Ala-Trp-D-Phe-Lys(4-FB)-NH2] (H-H[dW]AW[dF]K(Benzoyl(4-F))-NH2) | 0.384 µM
C[C@H](NC(=O)[C@@H](Cc1c[nH]c2ccccc12)NC(=O)[C@@H](N)Cc1c[nH]cn1)C(=O)N[C@@H](Cc1c[nH]c2ccccc12)C(=O)N[C@H](Cc1ccccc1)C(=O)N[C@@H](CNC(=O)c1ccc(F)cc1)C(N)=O [Dpr-4-FB-GHRP-6, H-His-D-Trp-Ala-Trp-D-Phe-Dpr(4-FB)-NH2] (H-H[dW]AW[dF][Dap](Benzoyl(4-F))-NH2) | 1.06 µM
C[C@H](N)C(=O)N[C@@H](Cc1c[nH]cn1)C(=O)N[C@H](Cc1ccc2ccccc2c1)C(=O)N[C@@H](C)C(=O)N[C@@H](Cc1c[nH]c2ccccc12)C(=O)N[C@H](Cc1ccccc1)C(=O)N[C@@H](CCCCN)C(N)=O [GHRP-1, H-Ala-His-D-2-Nal-Ala-Trp-D-Phe-Lys-NH2, reference compound] (H-AH[d2Nal]AW[dF]K-NH2) | 0.181 µM
NCCCC[C@H](NC(=O)[C@H](Cc1cccc2ccccc12)NC(=O)[C@@H](Cc1ccc2ccccc2c1)NC(=O)[C@@H](Cc1ccc2ccccc2c1)NC(=O)C1CCNCC1)C(N)=O [MMF-01-113-G, H-Inp-D-2-Nal-D-2-Nal-1-Nal-Lys-NH2] (H-[Inp][d2Nal][d2Nal][1Nal]K-NH2) | 0.0276 µM
CC(F)C(=O)NCCCC[C@H](NC(=O)[C@H](CO)NC(=O)[C@H](Cc1ccccc1)NC(=O)[C@@H](Cc1ccc2ccccc2c1)NC(=O)[C@@H](Cc1ccc2ccccc2c1)NC(=O)C1CCNCC1)C(N)=O (stereo partly drawn) [TL-MF-4-2FP, H-Inp-(D-2-Nal)2-Phe-Ser-Lys(2-FP)-NH2] (H-[Inp][d2Nal][d2Nal]FSK(Propanoyl(2-F))-NH2) | 0.00435 µM

target: Human recombinant ghrelin receptor (Homo sapiens, UniProt Q92847); assay: Calcium flux dose-response assay (FLIPR TETRA, EMD Millipore GPCRProfiler); format: cell-based; conditions: FIGS. 51 and 52, Example 3
Method: Another in vitro assay performed on the 4-fluorobenzoyl agonist [1-Nal^4,Lys^5(4-FB)]G-7039 and the [Lys^5(2-FP)]G-7039 agonist was a calcium flux dose-response assay. […] In this particular case, the biological effect of the peptidomimetic [1-Nal^4,Lys^5(4-FB)]G-7039 and the peptidomimetic [Lys^5(2-FP)]G-7039 is the release of intracellular calcium ions, a process which is detected by fluorescence using a […] instrument.
If the compound remained soluble 15 minutes after addition, samples were shipped to the EMD Millipore Corporation (15 Research Park Drive, St. Charles, Mo. 63304, USA). […] The agonist assay was performed for a total of 180 seconds. Each assay and assay concentration was performed in duplicate. The data acquired is presented in FIG. 51 ([1-Nal^4,Lys^5(4-FB)]G-7039) and FIG. 52 (Lys^5(2-FP)]G-7039).

Chain of Human recombinant ghrelin receptor (Q92847 whole entry): as above

SMILES | EC50 value compared with ghrelin
NC(=O)[C@H](CCCCNC(=O)c1ccc(F)cc1)NC(=O)[C@H](Cc1cccc2ccccc12)NC(=O)[C@@H](Cc1ccc2ccccc2c1)NC(=O)[C@@H](Cc1ccc2ccccc2c1)NC(=O)C1CCNCC1 [MMF-01-115-H, H-Inp-D-2-Nal-D-2-Nal-1-Nal-Lys(4-FB)-NH2] (H-[Inp][d2Nal][d2Nal][1Nal]K(Benzoyl(4-F))-NH2) | below that of ghrelin
CC(F)C(=O)NCCCC[C@H](NC(=O)[C@H](Cc1ccccc1)NC(=O)[C@@H](Cc1ccc2ccccc2c1)NC(=O)[C@@H](Cc1ccc2ccccc2c1)NC(=O)C1CCNCC1)C(N)=O (stereo partly drawn) [Compound 2-FP-G-7039, H-Inp-D-2-Nal-D-2-Nal-Phe-Lys(2-FP)-NH2] (H-[Inp][d2Nal][d2Nal]FK(Propanoyl(2-F))-NH2) | below that of ghrelin

same assay, conditions: chem-1 cells, Fluo-8 NW dye, duplicate; read-out: EC50, intracellular Ca2+ release

SMILES | EC50
NC(=O)[C@H](CCCCNC(=O)c1ccc(F)cc1)NC(=O)[C@H](Cc1cccc2ccccc12)NC(=O)[C@@H](Cc1ccc2ccccc2c1)NC(=O)[C@@H](Cc1ccc2ccccc2c1)NC(=O)C1CCNCC1 [MMF-01-115-H, H-Inp-D-2-Nal-D-2-Nal-1-Nal-Lys(4-FB)-NH2] (H-[Inp][d2Nal][d2Nal][1Nal]K(Benzoyl(4-F))-NH2) | 0.0011 µM

test system: GH release; assay: not given; conditions: Elias et al., Endocrinology 1995, read-out: EC50, reported half-maximal effective concentration; cited from earlier work

SMILES | EC50
NCCCC[C@H](NC(=O)[C@H](Cc1ccccc1)NC(=O)[C@@H](Cc1ccc2ccccc2c1)NC(=O)[C@@H](Cc1ccc2ccccc2c1)NC(=O)C1CCNCC1)C(N)=O [Compound G-7039, H-Inp-D-2-Nal-D-2-Nal-Phe-Lys-NH2, reference compound] (H-[Inp][d2Nal][d2Nal]FK-NH2) | 0.00018 µM
